Reference: ChEMBL document CHEMBL1201862, “PubChem BioAssay data set” (2004)
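Five concentrations, 48 hours, 96-well plates. Here, GI50 denotes the concentration required for 50% inhibition of growth.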 Active and inactive are the calls of the source. Rule as the data show it: active = GI50 up to about 1.1 µM and inactive = higher.

Key:
Assay in all cases: NCI tumour cell line growth inhibition, 48 h
SR = test system: SR
HT-29 = test system: HT-29
HCT-116 = test system: HCT-116
UO-31 = test system: UO-31
SNB-75 = test system: SNB-75
OVCAR-8 = test system: OVCAR-8
Malme-3M = test system: Malme-3M
XF498 = test system: XF498
COLO 205 = test system: COLO 205
SK-MEL-2 = test system: SK-MEL-2
DLD-1 = test system: DLD-1
SN12C = test system: SN12C
TK-10 = test system: TK-10
786-0 = test system: 786-0
K562 = test system: K562
SK-MEL-28 = test system: SK-MEL-28
OVCAR-4 = test system: OVCAR-4
NCI-H226 = test system: NCI-H226
SNB-78 = test system: SNB-78
HOP-18 = test system: HOP-18
SF-539 = test system: SF-539
SK-OV-3 = test system: SK-OV-3
RXF 393 = test system: RXF 393
LOX IMVI = test system: LOX IMVI
RPMI-8226 = test system: RPMI-8226
KM-20L2 = test system: KM-20L2
SW-620 = test system: SW-620
EKVX = test system: EKVX
OVCAR-3 = test system: OVCAR-3
HOP-92 = test system: HOP-92
UACC-62 = test system: UACC-62
SF-268 = test system: SF-268
DMS-114 = test system: DMS-114
CCRF-CEM = test system: CCRF-CEM
M14 = test system: M14
OVCAR-5 = test system: OVCAR-5
M19-MEL = test system: M19-MEL
CAKI-1 = test system: CAKI-1
NCI-H522 = test system: NCI-H522
MOLT-4 = test system: MOLT-4
UACC-257 = test system: UACC-257
ACHN = test system: ACHN
LXFL 529 = test system: LXFL 529
HL-60 = test system: HL-60
A549 = test system: A549
KM12 = test system: KM12
SNB-19 = test system: SNB-19
U-251 = test system: U-251
NCI-H23 = test system: NCI-H23
HCC 2998 = test system: HCC 2998
DMS-273 = test system: DMS-273
HOP-62 = test system: HOP-62
SF-295 = test system: SF-295
NCI-H460 = test system: NCI-H460
SK-MEL-5 = test system: SK-MEL-5
IGROV-1 = test system: IGROV-1
HCT-15 = test system: HCT-15

Oc1ccccc1-c1cnnc(-c2ccccc2O)c1
GI50 (SR): 19 µM (inactive) | GI50 (HT-29): 26.5 µM (inactive) | GI50 (HCT-116): 20.1 µM (inactive) | GI50 (UO-31): 19.7 µM (inactive) | GI50 (SNB-75): 20.4 µM (inactive) | GI50 (OVCAR-8): 22.6 µM (inactive) | GI50 (Malme-3M): 33.6 µM (inactive) | GI50 (XF498): 16.2 µM (inactive) | GI50 (COLO 205): 22 µM (inactive) | GI50 (SK-MEL-2): 20.5 µM (inactive) | GI50 (DLD-1): 30.6 µM (inactive) | GI50 (SN12C): 30.3 µM (inactive) | GI50 (TK-10): 28.7 µM (inactive) | GI50 (786-0): 17.9 µM (inactive) | GI50 (K562): 7.73 µM (inactive) | GI50 (SK-MEL-28): 35.6 µM (inactive) | GI50 (OVCAR-4): 29.9 µM (inactive) | GI50 (NCI-H226): 42 µM (inactive) | GI50 (SNB-78): 33.3 µM (inactive) | GI50 (HOP-18): 22.1 µM (inactive) | GI50 (SF-539): 33.9 µM (inactive) | GI50 (SK-OV-3): 43.5 µM (inactive) | GI50 (RXF 393): 20.3 µM (inactive) | GI50 (LOX IMVI): 20.3 µM (inactive) | GI50 (RPMI-8226): 16.7 µM (inactive) | GI50 (KM-20L2): 43.5 µM (inactive) | GI50 (SW-620): 37.7 µM (inactive) | GI50 (EKVX): 24.1 µM (inactive) | GI50 (OVCAR-3): 19 µM (inactive) | GI50 (HOP-92): 24 µM (inactive) | GI50 (UACC-62): 17.5 µM (inactive) | GI50 (SF-268): 38.2 µM (inactive) | GI50 (DMS-114): 15 µM (inactive) | GI50 (CCRF-CEM): 13.4 µM (inactive) | GI50 (M14): 22.2 µM (inactive) | GI50 (OVCAR-5): 28.6 µM (inactive) | GI50 (M19-MEL): 27.4 µM (inactive) | GI50 (CAKI-1): 28.6 µM (inactive) | GI50 (NCI-H522): 17.7 µM (inactive) | GI50 (MOLT-4): 18.1 µM (inactive) | GI50 (UACC-257): 25.1 µM (inactive) | GI50 (ACHN): 27.7 µM (inactive) | GI50 (LXFL 529): 21.5 µM (inactive) | GI50 (HL-60): 19.8 µM (inactive)

O=C(Cc1ccccc1)NN1C(=O)C(Cl)C1c1cc(Br)ccc1O (centres undefined)
GI50 (SR): 1.56 µM (inactive) | GI50 (HT-29): 7.64 µM (inactive) | GI50 (HCT-116): 3.83 µM (inactive) | GI50 (UO-31): 7.45 µM (inactive) | GI50 (A549): 10.1 µM (inactive) | GI50 (SNB-75): 10.4 µM (inactive) | GI50 (OVCAR-8): 3.87 µM (inactive) | GI50 (Malme-3M): 13.5 µM (inactive) | GI50 (XF498): 7.76 µM (inactive) | GI50 (COLO 205): 14.1 µM (inactive) | GI50 (KM12): 9.48 µM (inactive) | GI50 (SK-MEL-2): 3.05 µM (inactive) | GI50 (DLD-1): 3.33 µM (inactive) | GI50 (SNB-19): 10.4 µM (inactive) | GI50 (SN12C): 7.29 µM (inactive) | GI50 (U-251): 3.69 µM (inactive) | GI50 (NCI-H23): 4.43 µM (inactive) | GI50 (HCC 2998): 9.46 µM (inactive) | GI50 (TK-10): 21.6 µM (inactive) | GI50 (786-0): 5.89 µM (inactive) | GI50 (K562): 3.35 µM (inactive) | GI50 (SK-MEL-28): 3.94 µM (inactive) | GI50 (OVCAR-4): 2.21 µM (inactive) | GI50 (NCI-H226): 30 µM (inactive) | GI50 (SNB-78): 8 µM (inactive) | GI50 (HOP-18): 5.01 µM (inactive) | GI50 (SK-OV-3): 4.07 µM (inactive) | GI50 (RXF 393): 19.1 µM (inactive) | GI50 (DMS-273): 5.19 µM (inactive) | GI50 (LOX IMVI): 4.15 µM (inactive) | GI50 (RPMI-8226): 3.72 µM (inactive) | GI50 (KM-20L2): 9.64 µM (inactive) | GI50 (HOP-62): 2.65 µM (inactive) | GI50 (SW-620): 4.11 µM (inactive) | GI50 (EKVX): 3.03 µM (inactive) | GI50 (SF-295): 6.19 µM (inactive) | GI50 (OVCAR-3): 2.56 µM (inactive) | GI50 (UACC-62): 4.15 µM (inactive) | GI50 (SF-268): 1.95 µM (inactive) | GI50 (NCI-H460): 2.2 µM (inactive) | GI50 (DMS-114): 2.23 µM (inactive) | GI50 (CCRF-CEM): 0.755 µM (active) | GI50 (M14): 4.34 µM (inactive) | GI50 (OVCAR-5): 5.57 µM (inactive) | GI50 (M19-MEL): 4.62 µM (inactive) | GI50 (SK-MEL-5): 7.59 µM (inactive) | GI50 (CAKI-1): 13 µM (inactive) | GI50 (NCI-H522): 2.72 µM (inactive) | GI50 (MOLT-4): 1.04 µM (active) | GI50 (UACC-257): 1.29 µM (inactive) | GI50 (ACHN): 2.76 µM (inactive) | GI50 (LXFL 529): 5.68 µM (inactive) | GI50 (HL-60): 2.46 µM (inactive) | GI50 (IGROV-1): 7.71 µM (inactive) | GI50 (HCT-15): 3.65 µM
